Assay results reported in patent US10501461B2, “Tyrosine amide derivatives as Rho-kinase inhibitors” (CHIESI FARMACEUTICI S.P.A., priority 2017, dated 2019).
pKi: −log10 of the molar value.

Key:
Rho kinase 1 (ROCK-I) = Rho kinase 1 (ROCK-I) (Homo sapiens, UniProt Q13464); assay: In vitro Rho kinase inhibitory activity assay (ADP-Glo), Rho kinase 1; type: biochemical; conditions: 10 μM ATP, 25° C., expressed as range of activity
Procedure: (§1) The effectiveness of compounds of the present invention to inhibit Rho kinase activity can be determined in a 10 μl assay containing 40 mM Tris pH7.5, 20 mM MgCl2 0.1 mg/ml BSA, 50 μM DTT and 2.5 μM peptide substrate (Myelin Basic Protein) using an ADP-Glo kit (Promega). Compounds were dissolved in DMSO such that the final concentration of DMSO was 1% in the assay. All reactions/incubations are performed at 25° C. Compound (2 ul) and either Rho kinase 1 or 2 (4 μl) were mixed and incubated for 30 mins. Reactions were initiated by addition of ATP (4 μl) such that the final concentration of ATP in the assay was 10 μM. After a 1 hour incubation 10 μl of ADP-Glo Reagent was added and after a further 45 minute incubation 20 ul of Kinase Detection Buffer was added and the mixture incubated for a further 30 minutes. The luminescent signal was measured on a luminometer. […] Compounds were tested in dose-response format and the inhibition of kinase activity was calculated at each concentration of compound. To determine the IC50 (concentration of compound required to inhibit 50% of the enzyme activity) data were fit to a plot of % inhibition vs Log10 compound concentration using a sigmoidal fit with a variable slope and fixing the maximum to 100% and the minimum to 0%. To determine the Ki values the Cheng-Prusoff equation was utilized (Ki=IC50/(1+[S]/Km).

Rho kinase 2 (ROCK-II) = Rho kinase 2 (ROCK-II) (Homo sapiens, UniProt O75116); assay: In vitro Rho kinase inhibitory activity assay (ADP-Glo), Rho kinase 2; type: biochemical; conditions: 10 μM ATP, 25° C., expressed as range of activity
Procedure: as §1

Sequence of Rho kinase 1 (ROCK-I) (Q13464 whole entry): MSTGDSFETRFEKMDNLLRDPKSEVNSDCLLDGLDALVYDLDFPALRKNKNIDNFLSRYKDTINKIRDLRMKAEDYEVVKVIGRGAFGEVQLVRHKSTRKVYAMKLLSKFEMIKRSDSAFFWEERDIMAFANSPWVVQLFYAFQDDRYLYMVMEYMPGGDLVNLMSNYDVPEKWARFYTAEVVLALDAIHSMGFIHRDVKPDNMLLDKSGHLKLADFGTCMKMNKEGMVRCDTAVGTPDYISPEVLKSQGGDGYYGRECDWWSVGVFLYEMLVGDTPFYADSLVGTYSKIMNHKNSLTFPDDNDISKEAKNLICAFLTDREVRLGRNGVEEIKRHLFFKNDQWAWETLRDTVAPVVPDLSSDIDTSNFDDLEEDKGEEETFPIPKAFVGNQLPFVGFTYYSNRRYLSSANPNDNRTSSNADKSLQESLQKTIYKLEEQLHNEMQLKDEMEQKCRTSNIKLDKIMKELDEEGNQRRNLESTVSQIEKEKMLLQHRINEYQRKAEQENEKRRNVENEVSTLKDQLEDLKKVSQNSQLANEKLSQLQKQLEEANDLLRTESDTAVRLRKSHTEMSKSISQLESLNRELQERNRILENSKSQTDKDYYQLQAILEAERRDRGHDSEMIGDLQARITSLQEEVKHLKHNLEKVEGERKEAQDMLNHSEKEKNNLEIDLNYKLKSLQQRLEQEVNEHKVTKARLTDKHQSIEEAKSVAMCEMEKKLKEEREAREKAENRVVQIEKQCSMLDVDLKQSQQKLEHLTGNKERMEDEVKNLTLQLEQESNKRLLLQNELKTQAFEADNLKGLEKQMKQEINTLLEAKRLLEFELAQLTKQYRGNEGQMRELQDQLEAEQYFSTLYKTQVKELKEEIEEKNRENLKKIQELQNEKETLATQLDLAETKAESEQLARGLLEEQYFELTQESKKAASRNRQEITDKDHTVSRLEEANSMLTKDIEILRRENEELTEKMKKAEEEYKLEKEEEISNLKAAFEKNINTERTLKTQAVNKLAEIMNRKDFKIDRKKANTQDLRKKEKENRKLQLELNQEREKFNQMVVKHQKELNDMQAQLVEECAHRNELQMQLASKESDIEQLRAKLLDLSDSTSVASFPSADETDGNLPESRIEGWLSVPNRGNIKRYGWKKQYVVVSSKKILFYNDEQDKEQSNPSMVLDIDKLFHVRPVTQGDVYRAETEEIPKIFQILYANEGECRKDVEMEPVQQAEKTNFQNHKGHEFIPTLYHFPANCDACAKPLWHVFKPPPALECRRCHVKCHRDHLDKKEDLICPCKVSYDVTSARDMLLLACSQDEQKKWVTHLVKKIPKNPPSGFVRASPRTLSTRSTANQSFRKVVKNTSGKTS
Sequence of Rho kinase 2 (ROCK-II) (O75116 whole entry): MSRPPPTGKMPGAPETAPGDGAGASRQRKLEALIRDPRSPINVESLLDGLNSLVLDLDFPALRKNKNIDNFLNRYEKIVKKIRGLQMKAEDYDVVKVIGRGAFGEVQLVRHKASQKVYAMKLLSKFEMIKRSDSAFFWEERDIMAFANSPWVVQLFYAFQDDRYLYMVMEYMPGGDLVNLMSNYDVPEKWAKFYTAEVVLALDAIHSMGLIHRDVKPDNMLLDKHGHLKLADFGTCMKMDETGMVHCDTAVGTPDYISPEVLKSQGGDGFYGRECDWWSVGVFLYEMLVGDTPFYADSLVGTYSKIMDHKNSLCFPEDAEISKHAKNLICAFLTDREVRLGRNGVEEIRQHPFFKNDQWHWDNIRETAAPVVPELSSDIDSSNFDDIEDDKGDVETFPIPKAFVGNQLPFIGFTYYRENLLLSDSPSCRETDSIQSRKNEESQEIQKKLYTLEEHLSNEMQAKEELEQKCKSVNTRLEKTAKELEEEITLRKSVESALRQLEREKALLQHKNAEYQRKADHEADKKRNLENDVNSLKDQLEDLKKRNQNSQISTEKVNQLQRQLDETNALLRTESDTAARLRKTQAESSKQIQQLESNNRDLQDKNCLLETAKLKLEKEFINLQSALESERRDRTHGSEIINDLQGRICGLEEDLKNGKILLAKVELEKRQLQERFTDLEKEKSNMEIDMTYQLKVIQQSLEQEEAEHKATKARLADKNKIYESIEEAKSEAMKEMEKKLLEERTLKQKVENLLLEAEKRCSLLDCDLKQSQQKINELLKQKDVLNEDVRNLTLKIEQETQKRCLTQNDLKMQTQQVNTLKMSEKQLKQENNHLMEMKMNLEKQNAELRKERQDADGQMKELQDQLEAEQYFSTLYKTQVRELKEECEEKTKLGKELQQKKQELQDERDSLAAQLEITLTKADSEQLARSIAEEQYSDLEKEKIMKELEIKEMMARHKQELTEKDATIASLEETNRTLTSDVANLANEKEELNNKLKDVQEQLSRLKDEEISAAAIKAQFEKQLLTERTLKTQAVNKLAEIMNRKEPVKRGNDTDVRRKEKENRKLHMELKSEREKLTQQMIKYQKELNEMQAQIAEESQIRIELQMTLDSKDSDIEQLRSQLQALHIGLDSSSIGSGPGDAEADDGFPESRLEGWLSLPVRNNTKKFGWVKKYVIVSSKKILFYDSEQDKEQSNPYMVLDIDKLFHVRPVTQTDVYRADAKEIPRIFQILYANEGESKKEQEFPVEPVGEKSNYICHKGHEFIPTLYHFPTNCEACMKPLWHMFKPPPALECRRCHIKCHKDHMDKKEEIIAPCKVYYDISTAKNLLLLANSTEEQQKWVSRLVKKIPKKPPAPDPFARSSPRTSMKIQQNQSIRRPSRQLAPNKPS

pKi (Rho kinase 1 (ROCK-I)) | pKi (Rho kinase 2 (ROCK-II)) | SMILES
7.52 to 8.52 | 7.52 to 8.52 | Cc1c[nH]c2ncnc(Oc3ccc(C[C@H](N)C(=O)NC4CCN(C)CC4)cc3F)c12 [Example 117, (S)-2-amino-3-(3-fluoro-4-((5-methyl-7H-pyrrolo[2,3-d]pyrimidin-4-yl)oxy)phenyl)-N-(1-methylpiperidin-4-yl)propanamide]
7.52 to 8.52 | 7.52 to 8.52 | Cc1c[nH]c2nccc(Oc3ccc(C[C@@H](N)C(=O)NCC4CCCCC4)cc3)c12 [Example 140, (R)-2-amino-N-(cyclohexylmethyl)-3-(4-((3-methyl-1H-pyrrolo[2,3-b]pyridin-4-yl)oxy)phenyl)propanamide]
> 8.52 | > 8.52 | Cc1c[nH]c2nccc(Oc3ccc(C[C@H](N)C(=O)NCCc4ccncc4)cc3)c12 [Example 89, (S)-2-amino-3-(4-((3-methyl-1H-pyrrolo[2,3-b]pyridin-4-yl)oxy)phenyl)-N-(2-(pyridin-4-yl)ethyl)propanamide]
< 7.52 | < 7.52 | CN1CCC(NC(=O)[C@H](N)Cc2ccc(Oc3ccnc4[nH]ccc34)cc2)CC1 [Example 104, (R)-3-(4-((1H-pyrrolo[2,3-b]pyridin-4-yl)oxy)phenyl)-2-amino-N-(1-methylpiperidin-4-yl)propanamide]
> 8.52 | > 8.52 | N[C@@H](Cc1ccc(Oc2ccnc3[nH]cc(Br)c23)cc1)C(=O)NC1CCOCC1 [Example 189, (S)-2-amino-3-(4-((3-bromo-1H-pyrrolo[2,3-b]pyridin-4-yl)oxy)phenyl)-N-(tetrahydro-2H-pyran-4-yl)propanamide]
< 7.52 | < 7.52 | N[C@H](Cc1ccc(Oc2ccnc3[nH]ccc23)cc1)C(=O)NCc1ccccc1 [Example 98, (R)-3-(4-((1H-pyrrolo[2,3-b]pyridin-4-yl)oxy)phenyl)-2-amino-N-benzylpropanamide]

Further lines, the molecule ahead of its results:

SMILES | pKi (Rho kinase 1 (ROCK-I)) | pKi (Rho kinase 2 (ROCK-II))
Cc1c[nH]c2nccc(Oc3ccc(CC(N)C(=O)NCc4ccc(CO)cc4)cc3F)c12 (stereo not drawn) [Example 62, 2-amino-3-(3-fluoro-4-((3-methyl-1H-pyrrolo[2,3-b]pyridin-4-yl)oxy)phenyl)-N-(4-(hydroxymethyl)benzyl)propanamide] | > 8.52 | > 8.52
Cc1c[nH]c2nccc(Oc3ccc(CC(N)C(=O)Nc4cccnc4)cc3F)c12 (stereo not drawn) [Example 70, 2-amino-3-(3-fluoro-4-((3-methyl-1H-pyrrolo[2,3-b]pyridin-4-yl)oxy)phenyl)-N-(pyridin-3-yl)propanamide] | > 8.52 | > 8.52
Cc1c[nH]c2nccc(Oc3ccc(C[C@H](N)C(=O)NCCCN(C)C)cc3F)c12 [Example 15, (S)-2-amino-N-(3-(dimethylamino)propyl)-3-(3-fluoro-4-((3-methyl-1H-pyrrolo[2,3-b]pyridin-4-yl)oxy)phenyl)propanamide] | > 8.52 | > 8.52
N[C@@H](Cc1ccc(Oc2ccnc3[nH]ccc23)cn1)C(=O)N1CCN(Cc2ccccc2)CC1 [Example 228, (S)-3-(5-((1H-pyrrolo[2,3-b]pyridin-4-yl)oxy)pyridin-2-yl)-2-amino-1-(4-benzylpiperazin-1-yl)propan-1-one] | < 7.52 | 7.52 to 8.52
Cc1c[nH]c2nccc(Oc3ccc(C[C@H](N)C(=O)N4CCC(O)(Cc5ccccc5)CC4)cc3F)c12 [Example 9, (S)-2-amino-1-(4-benzyl-4-hydroxypiperidin-1-yl)-3-(3-fluoro-4-((3-methyl-1H-pyrrolo[2,3-b]pyridin-4-yl)oxy)phenyl)propan-1-one] | > 8.52 | > 8.52
Cc1c[nH]c2nccc(Oc3ccc(C[C@H](N)C(=O)N4CCNCC4)cc3F)c12 [Example 152, (S)-2-amino-3-(3-fluoro-4-((3-methyl-1H-pyrrolo[2,3-b]pyridin-4-yl)oxy)phenyl)-1-(piperazin-1-yl)propan-1-one] | > 8.52 | > 8.52
